The text below walks through data of US20250346603A1, “TRICYCLIC COMPOUNDS AS PI3KALPHA INHIBITORS” (Pikavation Therapeutics, Inc., priority 2022, published 2025).

For experiment [1], the system named is T47D (PIK3CA H1047R) cells. The experiment in a line: pS473 AKT assay in T47D cells. The class given is cell-based. To be noted: Homo sapiens, pSer473 AKT, 2 h treatment, read-out: T47D_IC50. As to the method:
(§1) SKBR3 (PIK3CA WT), MCF7 (PIK3CA E545K), and T47D (PIK3CA H1047R) cells were cultured using 10-cm petri dishes with recommended medium. One day before the assay, cells were seeded in 96-well plates. After overnight incubation, cells were treated with different concentrations of PI3Kα inhibitors for 2 h. Cells were then fixed using 4% paraformaldehyde at room temperature for 20 min. Cells were aspirated with 4% paraformaldehyde, and washed using 1× regular phosphate buffered saline 3 times, 5 min each. Any residual phosphate buffered saline was aspirated and cells were blocked using 10% goat serum containing 1% bovine serum albumin and 0.3% Triton X-100 at room temperature for 1 h. Without any additional washing, primary antibodies (rabbit anti-pSer473 AKT) were diluted using blocking buffer and added at a final volume of 50 microliter per well. Assay plates with primary antibodies were maintained overnight at 4° C. Cells were washed using 1× regular phosphate buffered saline 3 times, 5 min each. After the final wash, cells were incubated with horseradish peroxidase-conjugated secondary antibodies (goat Anti-rabbit IgG) and diluted using the same blocking buffer at room temperature for 1 h. Cells were then washed thoroughly using 1× regular phosphate buffered saline 3 times, 5 min each, and any residual phosphate buffered saline was aspirated. Super-Signal ELISA Pico Chemiluminescent Substrate was then added at a final volume of 100 microliter per well. Plates were read on a i3× Multi-Mode Microplate Reader and IC50 values calculated using GraphPad Prism software.
(§2) Results of the assay described above are presented in Table A. “++++” indicates an IC50 less than 1000 nM; “+++” indicates an IC50 greater than or equal to 1000 nM but less than 5000 nM; “++” indicates an IC50 greater than or equal to 5000 nM but less than 10000 nM; and “+” indicates an IC50 greater than or equal to 10000 nM.

For the next experiment, the system named is SKBR3 (PIK3CA WT) cells. The experiment in a line: pS473 AKT assay in SKBR3 cells. The class given is cell-based. To be noted: Homo sapiens, SK-BR-3, pSer473 AKT, 2 h treatment, read-out: SKBR3_IC50. As to the method: as §1, §2

As for `Cc1cc(C(C)Nc2ccccc2C(=O)O)c2nc(N3CCC(C)(C)CC3)n3ccnc3c2c1` (stereo not drawn) [Example 1, 2-((1-(5-(4,4-Dimethylpiperidin-1-yl)-9-methylimidazo[1,2-c]quinazolin-7-yl)ethyl)amino)benzoic acid], the figures for the IC50 (in experiment [1]; in the experiment on SKBR3 (PIK3CA WT) cells) were below 1000 nM and at least 10000 nM, respectively.
Regarding `Cc1cc(C(C)Nc2ccccc2C(=O)O)c2nc(N3Cc4ccccc4C3)n3ccnc3c2c1` (stereo not drawn) [Example 2, 2-((1-(5-(Isoindolin-2-yl)-9-methylimidazo[1,2-c]quinazolin-7-yl)ethyl)amino)benzoic acid], the IC50 in experiment [1] is below 1000 nM; in the experiment with SKBR3 (PIK3CA WT) cells, at least 10000 nM.
For `Cc1cc(C(C)Nc2ccccc2C(=O)O)c2nc(N3CCC(C)(C)CC3)n3ncnc3c2c1` (stereo not drawn) [Example 3, 2-((1-(5-(4,4-Dimethylpiperidin-1-yl)-9-methyl-[1,2,4]triazolo[1,5-c]quinazolin-7-yl)ethyl)amino)benzoic acid], the IC50 in experiment [1] was below 1000 nM; in the experiment on SKBR3 (PIK3CA WT) cells, at least 10000 nM.
For `Cc1cc(C(C)Nc2ccccc2C(=O)O)c2nc(N3CCC(C)(C)CC3)n3cnnc3c2c1` (stereo not drawn) [Example 4, 2-((1-(5-(4,4-Dimethylpiperidin-1-yl)-9-methyl-[1,2,4]triazolo[4,3-c]quinazolin-7-yl)ethyl)amino)benzoic acid], the IC50 was below 1000 nM in experiment [1] and at least 10000 nM with SKBR3 (PIK3CA WT) cells.
With `Cc1cc(C(C)Nc2ccccc2C(=O)O)c2nc(N3Cc4ccccc4C3)n3cnnc3c2c1` (stereo not drawn) [Example 5, 2-((1-(5-(Isoindolin-2-yl)-9-methyl-[1,2,4]triazolo[4,3-c]quinazolin-7-yl)ethyl)amino)benzoic acid], the results for the IC50 (in experiment [1]; in the experiment with SKBR3 (PIK3CA WT) cells) were below 1000 nM and at least 10000 nM, respectively.
Consider `Cc1cc(C(C)Nc2ccccc2C(=O)O)c2nc(N3CCC(C)(C)C3)n3cnnc3c2c1` (stereo not drawn) [Example 6, 2-((1-(5-(3,3-Dimethylpyrrolidin-1-yl)-9-methyl-[1,2,4]triazolo[4,3-c]quinazolin-7-yl)ethyl)amino)benzoic acid], for which the IC50 in experiment [1] is below 1000 nM; in the experiment with SKBR3 (PIK3CA WT) cells, at least 10000 nM.
The matching figures for `Cc1cc(C(C)Nc2ccccc2C(=O)O)c2nc(N3CC(C)(C)C3)n3cnnc3c2c1` (stereo not drawn) [Example 7, 2-((1-(5-(3,3-Dimethylazetidin-1-yl)-9-methyl-[1,2,4]triazolo[4,3-c]quinazolin-7-yl)ethyl)amino)benzoic acid]: below 1000 nM and at least 10000 nM.
The matching figures for `Cc1cc(C(C)Nc2ccccc2C(=O)O)c2nc(N3CCC(C)(C)CC3)n3nnnc3c2c1` (stereo not drawn) [Example 8, 2-((1-(5-(4,4-dimethylpiperidin-1-yl)-9-methyltetrazolo[1,5-c]quinazolin-7-yl)ethyl)amino)benzoic acid]: 1000 to 5000 nM and at least 10000 nM.
Regarding `Cc1cc(C(C)Nc2ccccc2C(=O)O)c2nc(-c3cccc(C#N)c3)n3cnnc3c2c1` (stereo not drawn) [Example 9, 2-((1-(5-(3-Cyanophenyl)-9-methyl-[1,2,4]triazolo[4,3-c]quinazolin-7-yl)ethyl)amino)benzoic acid], the IC50 in experiment [1] is below 1000 nM.
On the same count and under the same terms, the same measure for `Cc1cc(C(C)Nc2ccc(Cl)nc2C(=O)O)c2nc(-c3cccc(C#N)c3)n3cnnc3c2c1` (stereo not drawn) [Example 10, 6-Chloro-3-((1-(5-(3-cyanophenyl)-9-methyl-[1,2,4]triazolo[4,3-c]quinazolin-7-yl)ethyl)amino)picolinic acid]: below 1000 nM.
Take `Cc1cc(C(C)Nc2ccccc2C(=O)O)c2nc(-c3cc(F)cc(F)c3)n3cnnc3c2c1` (stereo not drawn) [Example 11, 2-((1-(5-(3,5-Difluorophenyl)-9-methyl-[1,2,4]triazolo[4,3-c]quinazolin-7-yl)ethyl)amino)benzoic acid]: the IC50 in experiment [1] is below 1000 nM.
The same measure, in the same setting: the same measure for `CCc1ncn2c3c(C(C)Nc4ccc(C)nc4C(=O)O)cc(C)cc3c3nncn3c12` (stereo not drawn) [Example 12, 3-((1-(5-Ethyl-11-methylimidazo[1,5-a][1,2,4]triazolo[4,3-c]quinazolin-9-yl)ethyl)amino)-6-methylpicolinic acid]: 1000 to 5000 nM.
With `Cc1cc(C(C)Nc2ccc(Cl)nc2-c2ccncc2)c2nc(N3CCC(C)(C)CC3)n3cnnc3c2c1` (stereo not drawn) [Example 13, 6-Chloro-N-(1-(5-(4,4-dimethylpiperidin-1-yl)-9-methyl-[1,2,4]triazolo[4,3-c]quinazolin-7-yl)ethyl)-[2,4′-bipyridin]-3-amine], in experiment [1], the IC50 was below 1000 nM.
The same measure, in the same setting: to `CNC(=O)c1ccc(-c2nc(Cl)ccc2NC(C)c2cc(C)cc3c2nc(N2CCC(C)(C)CC2)n2cnnc32)cn1` (stereo not drawn) [Example 14, 6-Chloro-3-((1-(5-(4,4-dimethylpiperidin-1-yl)-9-methyl-[1,2,4]triazolo[4,3-c]quinazolin-7-yl)ethyl)amino)-N-methyl-[2,3′-bipyridine]-6′-carboxamide] belongs below 1000 nM; to `Cc1cc(C(C)Nc2ccc(Cl)nc2-c2cnn(C)c2)c2nc(N3CCN(C)CC3)n3cnnc3c2c1` (stereo not drawn) [Example 15, 6-Chloro-2-(1-methyl-1H-pyrazol-4-yl)-N-(1-(9-methyl-5-(4-methylpiperazin-1-yl)-[1,2,4]triazolo[4,3-c]quinazolin-7-yl)ethyl)pyridin-3-amine], below 1000 nM.
On the same count and under the same terms, the same measure for `Cc1cc(C(C)Nc2ccc(Cl)nc2-c2ccnn2C)c2nc(N3CCN(C)CC3)n3cnnc3c2c1` (stereo not drawn) [Example 16, 6-Chloro-2-(1-methyl-1H-pyrazol-5-yl)-N-(1-(9-methyl-5-(4-methylpiperazin-1-yl)-[1,2,4]triazolo[4,3-c]quinazolin-7-yl)ethyl)pyridin-3-amine]: below 1000 nM.
